Data published in patent US20230293535A1, “ERBB/BTK INHIBITORS” (Dizal (Jiangsu) Pharmaceutical Co., Ltd., priority 2018, published 2023).
Where a name gives a salt, the structure may show the parent alone. Read-outs that look alike come from different tables or passages of the source.

Experiments:
EGFR L858R&T790M = biological target: T1, EGFR L858R&T790M (Homo sapiens, UniProt P00533, L858R/T790M); experiment: EGFR L858R and T790M cellular phosphorylation inhibition in NCI-H1975 (MSD); assay type: cell-based; settings: NCI-H1975 cells, 4 h compound, p-EGFR(Y1068)/total EGFR; read-out: EGFR L858R and T790M mutation IC50;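 further: phosphorylated and total EGFR detected by electrochemiluminescence, cells exposed to compound in medium containing 1% FBS at 37 °C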
T1 construct: host or cells: NCI-H1975
T1 sequence (P00533 25-1210 T790M/L858R): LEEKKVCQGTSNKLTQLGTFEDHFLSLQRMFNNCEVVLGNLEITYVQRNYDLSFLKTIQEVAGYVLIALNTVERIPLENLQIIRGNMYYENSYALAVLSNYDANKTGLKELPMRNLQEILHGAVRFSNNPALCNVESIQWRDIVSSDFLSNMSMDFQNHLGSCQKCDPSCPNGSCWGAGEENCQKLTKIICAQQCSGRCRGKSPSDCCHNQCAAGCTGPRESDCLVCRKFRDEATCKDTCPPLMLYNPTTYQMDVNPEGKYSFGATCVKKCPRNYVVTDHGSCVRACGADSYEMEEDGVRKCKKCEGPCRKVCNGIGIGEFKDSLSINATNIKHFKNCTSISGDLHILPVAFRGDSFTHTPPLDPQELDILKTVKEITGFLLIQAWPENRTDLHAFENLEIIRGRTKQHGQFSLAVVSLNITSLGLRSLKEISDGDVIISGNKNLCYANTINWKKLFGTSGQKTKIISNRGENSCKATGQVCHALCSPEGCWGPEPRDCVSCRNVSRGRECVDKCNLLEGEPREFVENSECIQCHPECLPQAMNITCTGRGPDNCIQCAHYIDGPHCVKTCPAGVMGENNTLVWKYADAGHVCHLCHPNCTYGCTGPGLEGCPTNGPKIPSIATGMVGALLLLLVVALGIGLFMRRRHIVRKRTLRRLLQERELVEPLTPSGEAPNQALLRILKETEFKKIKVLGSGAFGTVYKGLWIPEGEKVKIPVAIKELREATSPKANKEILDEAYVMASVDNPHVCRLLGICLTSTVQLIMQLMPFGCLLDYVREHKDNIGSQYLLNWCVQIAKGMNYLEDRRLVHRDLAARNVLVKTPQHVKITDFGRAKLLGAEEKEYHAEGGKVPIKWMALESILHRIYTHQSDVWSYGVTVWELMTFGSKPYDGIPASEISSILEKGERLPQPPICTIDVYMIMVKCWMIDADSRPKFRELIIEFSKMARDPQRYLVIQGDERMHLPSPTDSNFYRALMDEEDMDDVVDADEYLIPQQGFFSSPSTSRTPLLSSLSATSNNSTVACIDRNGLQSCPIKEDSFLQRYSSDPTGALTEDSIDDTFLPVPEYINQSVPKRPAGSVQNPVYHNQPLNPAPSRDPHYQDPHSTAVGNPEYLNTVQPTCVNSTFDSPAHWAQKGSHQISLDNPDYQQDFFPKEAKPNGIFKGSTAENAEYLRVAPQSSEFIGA

[1] = tested on: Her2 exon 20 insertion YVMA transduced NIH-3T3 cell line; experiment: Cell proliferation, Her2 YVMAins NIH-3T3 (CellTiter-Glo, 72 h); assay type: cell-based; settings: Mus musculus, NIH3T3, 72 h, Her2 YVMAins cells, 72 h proliferation; read-out: Her2 Exon 20 YVMA insertion GI50;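 further: viable cells quantified by ATP luminescence, growth over a day-zero baseline plate expressed as percent of DMSO control growth, compound dilution series in 10% FBS medium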
[2] = biological target: T2, human Her2 exon 20 insertion mutation YVMA (Homo sapiens, UniProt P04626, INS775YVMA); experiment: Her2 Exon 20 YVMA insertion cellular phosphorylation inhibition (MSD p-Her2 Y1248/total Her2); assay type: cell-based; settings: Her2 YVMAins cells, 4 h compound;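 further: lentivirally transduced NIH-3T3 cells in 1% FBS medium, electrochemiluminescent MSD read-out, graded compound concentrations at 37 °C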
T2 construct: expressed in transfected cells; host or cells: NIH-3T3, lentiviral transduction, puromycin selection
T2 sequence (P04626 with tags, fused parts or gaps INS775YVMA): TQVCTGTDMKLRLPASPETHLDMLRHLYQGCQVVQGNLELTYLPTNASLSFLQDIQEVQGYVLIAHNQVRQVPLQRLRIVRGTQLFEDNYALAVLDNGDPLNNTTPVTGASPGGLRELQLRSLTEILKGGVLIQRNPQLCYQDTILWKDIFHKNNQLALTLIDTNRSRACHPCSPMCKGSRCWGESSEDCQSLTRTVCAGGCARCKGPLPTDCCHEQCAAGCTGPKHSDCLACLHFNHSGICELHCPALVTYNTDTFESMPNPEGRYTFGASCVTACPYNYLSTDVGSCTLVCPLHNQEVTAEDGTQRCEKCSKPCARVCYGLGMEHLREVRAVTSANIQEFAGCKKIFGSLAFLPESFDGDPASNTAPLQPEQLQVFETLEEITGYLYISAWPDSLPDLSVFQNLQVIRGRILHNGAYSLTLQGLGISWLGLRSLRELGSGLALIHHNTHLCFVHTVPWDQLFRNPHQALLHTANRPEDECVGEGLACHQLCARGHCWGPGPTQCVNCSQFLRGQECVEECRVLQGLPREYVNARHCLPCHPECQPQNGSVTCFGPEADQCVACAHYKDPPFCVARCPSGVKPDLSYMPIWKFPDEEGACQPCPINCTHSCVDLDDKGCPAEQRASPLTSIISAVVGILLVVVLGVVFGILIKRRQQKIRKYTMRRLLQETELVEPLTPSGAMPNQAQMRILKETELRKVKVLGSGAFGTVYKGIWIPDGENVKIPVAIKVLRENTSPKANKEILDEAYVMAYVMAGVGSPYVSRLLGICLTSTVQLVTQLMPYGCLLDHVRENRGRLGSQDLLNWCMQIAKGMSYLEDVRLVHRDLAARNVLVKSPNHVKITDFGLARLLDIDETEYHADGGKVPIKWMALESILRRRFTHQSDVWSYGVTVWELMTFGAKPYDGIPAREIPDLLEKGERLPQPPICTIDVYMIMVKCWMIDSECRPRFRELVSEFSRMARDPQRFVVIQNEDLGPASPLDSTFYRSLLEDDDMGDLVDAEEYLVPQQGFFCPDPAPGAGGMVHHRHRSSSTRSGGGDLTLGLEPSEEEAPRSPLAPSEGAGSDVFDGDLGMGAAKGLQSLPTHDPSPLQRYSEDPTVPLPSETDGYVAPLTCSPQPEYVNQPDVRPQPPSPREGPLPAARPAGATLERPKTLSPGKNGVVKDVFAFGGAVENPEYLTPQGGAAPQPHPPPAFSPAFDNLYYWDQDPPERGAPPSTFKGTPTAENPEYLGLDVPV
Experimental: The resulting cell line expressed phosphorylated Her2 protein and its proliferation depended on the mutation gene, which could be used for in vitro PD and anti-proliferation assays.
(§1) One day before the test, WT or mutant cells were seeded in 96 well plates at appropriate concentrations with corresponding growth media supplemented with 1% FBS, and incubated overnight. The next day, tested compounds at a series of concentrations were added into each individual well of the plates, and the plates were incubated for 4 h at 37° C. with 5% CO2.
(§2) The EGFR (Y1068) phosphorylation level (activity) of cells in each well were then measured with MSD kit named “MULTI-SPOT®96 4-Spot HB Prototype EGFR Triplex [sequence]: pEGFR(Tyr1068),pEGFR(Tyr1173), Total EGFR” according to the manufacturer’s instruction (MESO SCALE DISCOVERY, Cat# N45ZB-1). The assay is an electrochemiluminescent method for determining both phosphorylated and total EGFR of cells with an MSD SECTOR® Imager and the ratio of p-EGFR/total EGFR can be generated by the machine. The Her2 (Y1248) phosphorylation level (activity) of cells in each well were measured with MSD Kit named “Phospho-ErbB2 (Tyr1248) Assay Whole Cell Lysate Kit” according to the manufacturer’s instruction (MESO SCALE DISCOVERY, Cat# K151CLD-3). The assay is an electrochemiluminescent method (MESO SCALE DISCOVERY) for determining both phosphorylated and total Her2 of cells with an MSD SECTOR® Imager and then the ratio of p-Her2/total Her2 can be generated by the machine.

[3] = biological target: T3, human EGFR exon 20 H773_V774insNPH (Homo sapiens, UniProt P00533, INS773NPH); experiment: EGFR Exon20 NPH insertion cellular phosphorylation inhibition (MSD pEGFR Y1068/total EGFR); assay type: cell-based; settings: Ba/F3 EGFR NPH ins cells, 4 h compound, p-EGFR(Y1068)/total EGFR;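 further: IL3-independent Ba/F3 cells with constitutively phosphorylated EGFR, compound exposure at 37 °C under 5% CO2, electrochemiluminescent MSD measurement of the p-EGFR to total EGFR ratio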
T3 construct: host or cells: Ba/F3
T3 sequence (P00533 with tags, fused parts or gaps INS773NPH): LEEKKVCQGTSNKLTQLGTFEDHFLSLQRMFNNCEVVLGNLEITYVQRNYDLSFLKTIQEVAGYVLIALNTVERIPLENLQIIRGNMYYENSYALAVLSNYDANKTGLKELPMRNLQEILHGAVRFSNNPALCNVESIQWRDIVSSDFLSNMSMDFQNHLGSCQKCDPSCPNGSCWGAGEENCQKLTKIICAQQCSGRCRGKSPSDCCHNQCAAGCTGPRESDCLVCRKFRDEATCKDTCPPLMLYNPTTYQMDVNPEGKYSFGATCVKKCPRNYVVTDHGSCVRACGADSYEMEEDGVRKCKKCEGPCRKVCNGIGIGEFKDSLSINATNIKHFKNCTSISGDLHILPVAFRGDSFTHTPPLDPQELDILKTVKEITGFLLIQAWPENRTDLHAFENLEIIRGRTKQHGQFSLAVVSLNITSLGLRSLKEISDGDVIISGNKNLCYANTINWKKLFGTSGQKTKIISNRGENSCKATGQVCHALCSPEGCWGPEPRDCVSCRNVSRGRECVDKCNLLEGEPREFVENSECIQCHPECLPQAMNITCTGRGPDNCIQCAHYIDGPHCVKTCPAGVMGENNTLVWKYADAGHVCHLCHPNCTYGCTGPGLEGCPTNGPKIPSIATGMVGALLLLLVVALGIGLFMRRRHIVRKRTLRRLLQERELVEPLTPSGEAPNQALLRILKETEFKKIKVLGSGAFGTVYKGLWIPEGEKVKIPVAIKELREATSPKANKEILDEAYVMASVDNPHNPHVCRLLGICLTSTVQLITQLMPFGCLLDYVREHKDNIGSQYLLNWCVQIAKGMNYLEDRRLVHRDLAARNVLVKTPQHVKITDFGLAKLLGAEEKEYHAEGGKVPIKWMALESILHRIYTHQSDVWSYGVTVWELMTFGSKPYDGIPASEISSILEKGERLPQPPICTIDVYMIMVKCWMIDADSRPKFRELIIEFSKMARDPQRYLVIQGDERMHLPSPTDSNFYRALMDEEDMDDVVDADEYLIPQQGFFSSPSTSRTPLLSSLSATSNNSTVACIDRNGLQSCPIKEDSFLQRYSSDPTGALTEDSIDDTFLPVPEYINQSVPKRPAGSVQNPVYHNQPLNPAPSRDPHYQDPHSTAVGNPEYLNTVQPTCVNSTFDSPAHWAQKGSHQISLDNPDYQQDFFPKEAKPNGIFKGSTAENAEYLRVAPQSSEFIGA

Ba/F3 EGFR ASV ins cells = experiment: Cell proliferation, Ba/F3 EGFR ASV ins (CellTiter-Glo, 72 h); assay type: cell-based; settings: Ba/F3 EGFR, 72 h;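 further: IL3-independent Ba/F3 cells transduced with EGFR V769_D770insASV, cellular ATP luminescence after compound exposure, growth relative to DMSO control with the day-0 baseline reading subtracted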
Experimental: (§3) WT or mutant cells were seeded in 384 well plates at appropriate concentrations with corresponding growth media supplemented with 10% FBS, for each experiment, identical plates were prepared in duplicates, and the plates were incubated overnight. On the next day, one of each duplicated plates was dosed with tested compounds at a series of concentrations, and another one of the duplicated plate was analysied for G0 value. The dosed plates were incubate for another 72 h at 37° C. with 5% CO2 and the number of viable cells in each well of the G0 plates or the dosed plates were measured by CellTiter-Glo® Luminescent Cell Viability Assay (Promega). This assay is a luminescent method for determining the number viable cells through measurement of cellular ATP concentration by detection of luciferase activity. Detection reagents (15 µl) was dispensed into per well, and the plates were incubate for 30 min at room temperature. Then, the luminescence in each well was measured using the Envision plate reader (PerkinElmer). The percentage of proliferation was calculated based on the formula: %Proliferation= 100 × (G3 value of sample well-Go value)/(G3 value of DMSO control-Go value).

Ba/F3 EGFR NPH ins cells = experiment: Cell proliferation, Ba/F3 EGFR NPH ins (CellTiter-Glo, 72 h); assay type: cell-based; settings: Ba/F3 EGFR, 72 h;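 further: IL3-independent cells carrying constitutively phosphorylated EGFR, compound dilution series, viable cells quantified by ATP luminescence, growth relative to DMSO wells after subtracting pre-dosing (day 0) baseline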
[4] = biological target: T4, human EGFR exon 20 V769_D770insASV (Homo sapiens, UniProt P00533, INS769ASV); experiment: EGFR Exon20 ASV insertion cellular phosphorylation inhibition (MSD pEGFR Y1068/total EGFR); assay type: cell-based; settings: Ba/F3 EGFR ASV ins cells, 4 h compound, p-EGFR(Y1068)/total EGFR;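 further: electrochemiluminescent readout on an MSD SECTOR Imager, IL3-independent transduced cells in medium with 1% FBS, compound concentration series at 37 °C and 5% CO2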
T4 construct: expressed in transfected cells; host or cells: Ba/F3 (DSMZ ACC-300), lentiviral transduction, puromycin selection, IL3 depletion
T4 sequence (P00533 with tags, fused parts or gaps INS769ASV): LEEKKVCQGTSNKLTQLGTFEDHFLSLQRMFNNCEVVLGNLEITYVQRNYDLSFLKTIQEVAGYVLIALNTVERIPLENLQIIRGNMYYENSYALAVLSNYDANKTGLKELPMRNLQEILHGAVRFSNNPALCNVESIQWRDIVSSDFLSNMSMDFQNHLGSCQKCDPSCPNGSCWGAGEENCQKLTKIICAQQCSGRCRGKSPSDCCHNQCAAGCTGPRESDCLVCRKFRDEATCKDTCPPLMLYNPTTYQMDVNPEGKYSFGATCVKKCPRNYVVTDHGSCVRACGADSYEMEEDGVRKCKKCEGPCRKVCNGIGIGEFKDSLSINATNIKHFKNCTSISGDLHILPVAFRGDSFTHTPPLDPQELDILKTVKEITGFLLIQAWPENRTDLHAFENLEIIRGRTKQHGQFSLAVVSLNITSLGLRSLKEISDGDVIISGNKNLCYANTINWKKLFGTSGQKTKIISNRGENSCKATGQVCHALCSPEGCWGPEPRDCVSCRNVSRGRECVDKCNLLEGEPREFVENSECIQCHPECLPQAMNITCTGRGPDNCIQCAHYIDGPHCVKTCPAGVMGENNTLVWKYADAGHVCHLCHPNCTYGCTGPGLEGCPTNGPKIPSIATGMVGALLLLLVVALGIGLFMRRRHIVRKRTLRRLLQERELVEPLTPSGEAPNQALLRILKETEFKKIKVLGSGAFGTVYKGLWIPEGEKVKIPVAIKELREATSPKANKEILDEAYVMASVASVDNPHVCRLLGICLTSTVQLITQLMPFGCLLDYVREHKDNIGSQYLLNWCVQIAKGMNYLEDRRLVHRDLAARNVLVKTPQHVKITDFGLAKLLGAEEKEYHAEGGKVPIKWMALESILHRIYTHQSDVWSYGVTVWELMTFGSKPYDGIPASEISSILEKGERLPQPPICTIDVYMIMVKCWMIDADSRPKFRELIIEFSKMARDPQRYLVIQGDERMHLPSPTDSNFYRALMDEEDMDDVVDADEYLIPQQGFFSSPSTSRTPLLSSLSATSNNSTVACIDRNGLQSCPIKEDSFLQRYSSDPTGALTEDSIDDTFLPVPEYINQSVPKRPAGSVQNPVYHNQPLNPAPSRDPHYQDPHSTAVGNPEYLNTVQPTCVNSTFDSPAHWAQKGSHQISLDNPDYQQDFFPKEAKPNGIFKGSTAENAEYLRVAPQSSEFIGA
Experimental: To generate the EGFR exon 20 V769_D770insASV transduced Ba/F3 cell line, the parental Ba/F3 cells were infected with the recombinant EGFR V769_D770insASV lentivirus and then followed by 1 µg/ml of puromycin selection and IL3 depletion. The resulting cell line expresses constitutively phosphorylated EGFR protein and proliferates in the absence of IL3, which could be used for in vitro PD and anti-proliferation assays.
as §1, §2

WT EGFR = biological target: T5, WT EGFR (Homo sapiens, UniProt P00533); experiment: WT EGFR cellular phosphorylation inhibition in A-431 (hEGF stimulated, MSD); assay type: cell-based; settings: A431 cells, 4 h compound, then 100 ng/ml hEGF 10 min;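 further: electrochemiluminescence read-out of EGFR Tyr1068 phosphorylation expressed as ratio to total EGFR, cells kept in medium with 1% FBS, compounds tested as a concentration series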
T5 construct: host or cells: A-431

TMD-8 cells = experiment: BTK (wt) cell proliferation, TMD-8 (CellTiter-Glo, 72 h); assay type: cell-based; settings: Homo sapiens, TMD8, 72 h, TMD-8 cells, 72 h, CellTiter-Glo; read-out: BTK WT TMD-8 GI50;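 further: viable cells quantified by ATP-based luminescence, proliferation expressed as percent of DMSO control after subtracting a time-zero baseline plate read at dosing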
Experimental: (§4) OCI-LY-10 at 3,750 cells/well, TMD-8 and Ri-1 at 2,000 cells/well, and DB at 1,250 cells/well, respectively, were sorted into 384-well plates in RPMI1640 medium with 10% FBS. After overnight incubation, all cells were incubated with compound at a series of concentrations. Meanwhile, a duplicated plate of each cell line was prepared for measuring G0 value. The dosed plates were further incubated for 72 hours and the number of viable cells was measured by CellTiter-Glo® Luminescent Cell Viability Assay (Promega), a luminescent method for determining the number of viable cells through measurement of cellular ATP concentration using Envision plate reader (PerkinElmer). The percentage of proliferation was calculated as: % Proliferation = 100 × (G3 value of sample well - G0 value)/(G3 value of DMSO control - G0 value).

WT EGFR cell line A-431 = experiment: Cell proliferation, WT EGFR A431 (CellTiter-Glo, 72 h); assay type: cell-based; settings: Homo sapiens, A-431, 72 h;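 further: proliferation from a luminescent ATP viability signal, expressed as 100 × (treated minus time-zero plate) over (DMSO control minus time-zero plate), cells grown with 10% FBS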
OCI-LY-10 cells = experiment: BTK (wt) cell proliferation, OCI-LY-10 (CellTiter-Glo, 72 h); assay type: cell-based; settings: Homo sapiens, OCI-Ly10, 72 h, OCI-LY-10 cells, 72 h, CellTiter-Glo; read-out: BTK WT OCI-LY-10 GI50;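 further: viable cells quantified via cellular ATP luminescence, proliferation given as percent of DMSO control after subtracting a duplicate plate read at time of dosing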
Experimental: as §4

[5] = tested on: NCI-H1975 EGFR L858R/T790M cells; experiment: Cell proliferation, NCI-H1975 EGFR L858R/T790M (CellTiter-Glo, 72 h); assay type: cell-based; settings: Homo sapiens, NCI-H1975, 72 h;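 further: viable cells quantified by luciferase-based ATP luminescence, proliferation expressed relative to DMSO-treated wells (100%) after subtracting a parallel plate read at the time of dosing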
Experimental: as §3

Ri-1 cells = experiment: BTK (wt) cell proliferation, Ri-1 (CellTiter-Glo, 72 h); assay type: cell-based; settings: Ri-1, 72 h, Ri-1 cells, 72 h, CellTiter-Glo; read-out: BTK WT Ri-1 GI50;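 further: viable cells quantified as cellular ATP luminescence, proliferation normalized to a time-zero plate and the DMSO control, compounds tested across a dilution series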
DB cells = experiment: BTK (wt) cell proliferation, DB (CellTiter-Glo, 72 h); assay type: cell-based; settings: Homo sapiens, DB, DB cells, CellTiter-Glo, read-out: Non-BCR activated DB GI50;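 further: DB cells in 384-well plates given a dilution series of compound, viable cells read by ATP luminescence, growth expressed versus DMSO control after subtracting a time-zero plate reading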
[6] = In vitro human hepatocytes clearance assay; settings: both, human, cryopreserved human hepatocytes (suspension), human hepatocytes Clint (µL/min/10^6cells), mixed gender human hepatocytes, incubation up to 100 min
[7] = Ba/F3 EGFR ASV ins, 72 h proliferation, read-out: EGFR Exon20 ASV insertion GI50
[8] = Ba/F3 EGFR NPH ins, 72 h proliferation, read-out: EGFR Exon20 NPH insertion GI50
[9] = A431, 72 h proliferation, read-out: EGFR WT A431 GI50
[10] = NCI-H1975, 72 h proliferation, read-out: EGFR L858R and T790M mutation GI50
[11] = read-out: EGFR Exon20 ASV insertion GI50 (nM)
[12] = read-out: EGFR Exon20 NPH insertion GI50 (nM)
[13] = read-out: EGFR WT A431 GI50 (nM)
[14] = read-out: EGFR L858R and T790M mutation GI50 (nM)

| IC50 (EGFR L858R&T790M) | IC50 [2] | IC50 [3] | GI50 (Ba/F3 EGFR ASV ins cells; [7]) | GI50 (Ba/F3 EGFR NPH ins cells; [8]) | IC50 [4] | IC50 (WT EGFR) | GI50 (WT EGFR cell line A-431; [9]) | GI50 (OCI-LY-10 cells) | GI50 [5, 10] | SMILES | GI50 [1] | GI50 (TMD-8 cells) | GI50 (Ri-1 cells) | GI50 (DB cells) | GI50 (Ba/F3 EGFR ASV ins cells; [11]) | GI50 (Ba/F3 EGFR NPH ins cells; [12]) | GI50 (WT EGFR cell line A-431; [13]) | GI50 [5, 14] | hepatocyte CLint at 1 µM [6] |
| --- | --- | --- | --- | --- | --- | --- | --- | --- | --- | --- | --- | --- | --- | --- | --- | --- | --- | --- | --- |
| 1.7 nM | 26 nM | 79.9 nM | 92.1 nM | 84.7 nM | 71.2 nM | 765 nM | 40.6 nM | 228 nM | 4.9 nM | C=CC(=O)Nc1cc(Nc2nccc(Nc3cc(Cl)c(F)cc3C(C)(O)C(F)(F)F)n2)c(OC)cc1N1CC[C@@H](N(C)C)C1 (stereo partly drawn) [Compound 92, N-(5-(4-(5-chloro-4-fluoro-2-(1,1,1-trifluoro-2-hydroxypropan-2-yl)phenylamino)pyrimidin-2-ylamino)-2-((R)-3-(dimethylamino)pyrrolidin-1-yl)-4-methoxyphenyl) acrylamide] | 212 nM | 63.8 nM | 146 nM | 1200 nM |  |  |  |  |  |
| 0.7 nM | 4.4 nM | 28.5 nM | 80.9 nM | 94.9 nM | 17.7 nM | 28.9 nM | 16.5 nM | 21.6 nM | 6.4 nM | C=CC(=O)Nc1cc(Nc2ncnc(Nc3ccc4[nH]ccc4c3C(C)(C)O)n2)c(OC)cc1N(C)CCN(C)C [Compound 94, N-(2-((2-(dimethylamino)ethyl)(methyl)amino)-5-(4-(4-(2-hydroxypropan-2-yl)-1H-indol-5-ylamino)-1,3,5-triazin-2-ylamino)-4-methoxyphenyl)acrylamide] | 141 nM | 94.8 nM | 209 nM | > 3000 nM |  |  |  |  |  |
| 0.3 nM | 2.2 nM | 7.1 nM | 16 nM | 20.5 nM | 6.2 nM | 3.5 nM | 2.9 nM | 0.29 nM | 3.7 nM | C=CC(=O)Nc1cc(Nc2ncnc(Nc3cc4cc[nH]c4cc3C(C)(C)O)n2)c(OC)cc1N(C)CCN(C)C [Compound 95, N-(2-((2-(dimethylamino)ethyl)(methyl)amino)-5-(4-(6-(2-hydroxypropan-2-yl)-1H-indol-5-ylamino)-1,3,5-triazin-2-ylamino)-4-methoxyphenyl)acrylamide] | 15.8 nM | 1.16 nM | 971 nM | > 3000 nM |  |  |  |  |  |

The remaining lines, values behind:

| SMILES | IC50 (EGFR L858R&T790M) | IC50 [2] | IC50 [3] | GI50 (Ba/F3 EGFR ASV ins cells; [7]) | GI50 (Ba/F3 EGFR NPH ins cells; [8]) | IC50 [4] | IC50 (WT EGFR) | GI50 (WT EGFR cell line A-431; [9]) | GI50 (OCI-LY-10 cells) | GI50 [5, 10] | GI50 [1] | GI50 (TMD-8 cells) | GI50 (Ri-1 cells) | GI50 (DB cells) | GI50 (Ba/F3 EGFR ASV ins cells; [11]) | GI50 (Ba/F3 EGFR NPH ins cells; [12]) | GI50 (WT EGFR cell line A-431; [13]) | GI50 [5, 14] | hepatocyte CLint at 1 µM [6] |
| --- | --- | --- | --- | --- | --- | --- | --- | --- | --- | --- | --- | --- | --- | --- | --- | --- | --- | --- | --- |
| C=CC(=O)Nc1cc(Nc2nccc(Nc3cc(Cl)c(F)cc3C(C)(C)O)n2)c(OC)cc1N1CC[C@H](N(C)C)C1 [Compound 87, (S)-N-(5-(4-(5-chloro-4-fluoro-2-(2-hydroxypropan-2-yl)phenylamino)pyrimidin-2-ylamino)-2-(3-(dimethylamino)pyrrolidin-1-yl)-4-methoxyphenyl)a crylamide] | 1 nM | 21.2 nM | 51.2 nM | 156 nM | 140 nM | 51.9 nM | 362 nM | 84.8 nM | 22.3 nM | 24.4 nM | 827 nM | 13.7 nM | 48 nM | 1210 nM |  |  |  |  |  |
| C=CC(=O)Nc1cc(Nc2nccc(Nc3cc(Cl)c(F)cc3C(C)(C)O)n2)c(OC)cc1N1C[C@H](F)C[C@@H]1CN(C)C [Compound 88, N-(5-(4-(5-chloro-4-fluoro-2-(2-hydroxypropan-2-yl)phenylamino)pyrimidin-2-ylamino)-2-((2R,4R)-2-((dimethylamino)methyl)-4-fluoropyrrolidin-1-yl)-4-methoxyphenyl) acrylamide formic acid salt] | 0.5 nM | 4.5 nM | 10.1 nM |  |  | 7.5 nM | 27.8 nM |  | 1.57 nM |  | 31.2 nM | 6.49 nM | 12 nM | > 3000 nM | 14 nM | 18.8 nM | 6.9 nM | 1.8 nM |  |
| C=CC(=O)Nc1cc(Nc2nccc(Nc3cc(Cl)c(F)cc3C(C)(C)O)n2)c(OC)cc1N1C[C@H]2CN(C)[C@H]2C1 [Compound 89, N-(5-(4-(5-chloro-4-fluoro-2-(2-hydroxypropan-2-yl)phenylamino)pyrimidin-2-ylamino)-4-methoxy-2-((1R,5R)-6-methyl-3,6-diazabicyclo[3.2.0]heptan-3-yl)phenyl)acrylamide formic acid salt] | 0.7 nM | 6.8 nM | 14.8 nM |  |  | 23 nM | 148 nM |  | 11.4 nM |  | 158 nM | 9.86 nM | 17.5 nM | > 3000 nM | 115 nM | 63.8 nM | 63.1 nM | 2.8 nM | 3.84 µL/min/1e6 cells |
| C=CC(=O)Nc1cc(Nc2nccc(Nc3cc(Cl)c(F)cc3C(C)(C)O)n2)c(OC)cc1N1C[C@@H](C)C[C@@H]1CN(C)C [Compound 91, N-(5-(4-(5-chloro-4-fluoro-2-(2-hydroxypropan-2-yl)phenylamino)pyrimidin-2-ylamino)-2-((2R,4S)-2-((dimethylamino)methyl)-4-methylpyrrolidin-l-yl)-4-methoxyphenyl) acrylamide] | 1.5 nM | 22.5 nM | 26.2 nM | 69.6 nM | 64.6 nM | 41.2 nM | 183 nM | 31.5 nM | 86.8 nM | 2.2 nM | 148 nM | 58 nM | 79.4 nM | > 3000 nM |  |  |  |  | 8.57 µL/min/1e6 cells |
| C=CC(=O)Nc1cc(Nc2nccc(Nc3cc(Cl)c(F)cc3C(C)(C)O)n2)c(OC)cc1N1C[C@@H]2CN(C)[C@@H]2C1 [Compound 97, N-(5-(4-(5-chloro-4-fluoro-2-(2-hydroxypropan-2-yl)phenylamino)pyrimidin-2-ylamino)-4-methoxy-2-((1 S,5 S)-6-methyl-3,6-diazabicyclo[3.2.0]heptan-3-yl)phenyl)acrylamide formic acid salt] | 0.7 nM | 2.8 nM | 17.4 nM |  |  | 14.4 nM | 160 nM |  | 24 nM |  | 93.9 nM | 18.6 nM | 54.7 nM | > 3000 nM | 86.7 nM | 74.2 nM | 38 nM | 3.4 nM | 4.25 µL/min/1e6 cells |
| C=CC(=O)Nc1cc(Nc2nccc(Nc3cc(Cl)c(F)cc3C(C)(C)O)n2)c(OC)cc1N1CCC[C@@H]1CN1CCC1 [Compound 98, (R)-N-(2-(2-(azetidin-1-ylmethyl)pyrrolidin-1-yl)-5-(4-(5-chloro-4-fluoro-2-(2-hydroxypropan-2-yl)phenylamino)pyrimidin-2-ylamino)-4-methoxyphenyl) acrylamide formic acid salt] | 0.9 nM | 3.1 nM | 19.1 nM |  |  | 21.4 nM | 190 nM |  | 115 nM |  | 135 nM | 71.5 nM | 108 nM | > 3000 nM | 129 nM | 112 nM | 87.8 nM | 3.1 nM | 7.6 µL/min/1e6 cells |
